In brackets after ≈: the same amount, converted by molar mass. Several values for one entry are separate records, joined by “and”; a condition that tells them apart may be missing. Equal values may be shown once. Entries after “also recorded” stand apart in the source; their conditions may differ.
Legend:
[1] = test system: TG; conditions: at 0.1 μg ml^−1; no reference given; cited from earlier work
[2] = test system: S.aureus SG511; conditions: no reference given; cited from earlier work
[3] = test system: Gram-positive bacteria; assay: MIC of disaccharide library; type: cell-based
Excerpt: In the second stage, we used the disaccharide structure–activity relationship information to design more synthetically feasible and smaller monosaccharide molecules. A versatile solid-phase method was developed to rapidly synthesize the representatives of three different core chemotypes M1 to M3, starting from a single monosaccharide building block, that is, 1,5-anhydro-galactitol (see Fig. 3). Chemotype M1 explored the option of using only two of the hydrophobic elements, whereas the other two, M2 and M3, used a benzimidazole moiety as the third hydrophobic group (Fig. 3).

[4] = test system: S. aureus; assay: MIC of disaccharide and monosaccharide libraries (Figures 2, 3); conditions: Staphylococcus aureus
Method: (§1) Bacteria were cultured in Brain–Heart Infusion (Bacto laboratories, Cat. no. CM1135B) at 37 °C overnight. […] MICs were determined visually as the lowest concentration showing no visible growth.

[5] = test system: staphylococci; set-up: method as in earlier work; conditions: cited from earlier work
[6] = test system: enterococci; set-up: method as in earlier work; conditions: cited from earlier work
[7] = test system: MR S. aureus, VRE; set-up: method as in PMID 10464005; conditions: cited from earlier work
[8] = set-up: method as in earlier work; conditions: cited from earlier work
[9] = test system: S. aureus Newbould 305; assay: MIC determination (Mueller-Hinton agar dilution); type: cell-based; conditions: Staphylococcus aureus
Excerpt: guidelines 23. […] In addition
The animal experiments were
To evaluate the dose-response

[10] = test system: Human red blood cells; conditions: male, 1 h
Method: Human male red blood cells were isolated from fresh whole blood sample and washed with phosphate
buffered saline (PBS) 3 times. Red blood cells were diluted 1/200 with PBS for the haemolysis assay.
Each compound was assayed at 4 different concentrations in quadruplicate. Control items (100 μM
tamoxifen and 1% triton X100) were also assayed in quadruplicate. Background was determined with
1% DMF. The assay was performed for 1 h at 37 °C. The samples were then centrifuged for 10 min at
4°C at 1000 × g, the supernatant was recovered and absorption was measured at 415 nm. Results are
expressed as the % haemolysis compared to 1% triton X100 after background was subtracted, and
fitting dose response curve with Prism (GraphPad) to extract HC50 values.

[11] = microsomes
Method: In vitro metabolic stability studies
(§2) Compounds (1 μM) were incubated at 37 °C with human or mouse liver microsomes. The reaction was
(§3) initiated by the addition of an NADPH-regenerating system and quenched at various time points over
(§4) the incubation period by the addition of acetonitrile. Additional samples co-activated by NADP and
(§5) UDPGA (the co-factor for glucuronidation), were included in the incubation for the qualitative
(§6) assessment of the potential for glucuronide formation. The relative loss of parent compound and
(§7) formation of metabolic products was determined by LC/MS using the Q-TOF instrument. The studies
(§8) were conducted by a contract research organization (Centre for Drug Candidate Organization, Monash
University, Melbourne, Australia).
In vivo efficacy and PK studies
(§9) The in vivo pharmacokinetics of the compounds were studies in overnight-fasted male Sprague Dawley
(§10) Rats had access to water ad libitum throughout the pre- and post-dose
(§11) sampling period, and access to food was re-instated 4 hours post-dose. Compounds were
(§12) administrated IV as a 10 minute constant rate infusion (1.0 mL per rat, n=2 rats). Samples of arterial
(§13) Arterial blood was collected directly into
(§14) borosilicate vials (at 4 °C) containing heparin, Complete (a protease inhibitor cocktail), potassium
(§15) fluoride and EDTA to minimize potential for ex vivo degradation. Once collected, blood samples were […]
determined by LCMS (LLQ 0.0014 M). […]

[12] = mouse liver microsomes, 1 μM, 37 °C
Method: In vitro metabolic stability studies
as §2, §3, §4, §5, §6, §7, §8
University, Melbourne, Australia).
In vivo efficacy and PK studies
as §9, §10, §11, §12, §13, §14, §15
determined by LCMS (LLQ 0.0014 M). […]

[13] = rat, in vivo, iv
Method: In vitro metabolic stability studies
as §2, §3, §4, §5, §6, §7, §8
University, Melbourne, Australia).
In vivo efficacy and PK studies
as §9, §10, §11, §12, §13, §14
(§16) fluoride and EDTA to minimize potential for ex vivo degradation. Once collected, blood samples were
(§17) centrifuged, supernatant plasma was removed, and plasma concentration of compounds were
(§18) determined by LCMS (LLQ 0.0014 M). The studies were conducted by a contract research organization
(§19) (Centre for Drug Candidate Organization, Monash University, Melbourne, Australia).

[14] = in vivo; conditions: male, Sprague Dawley, rat, iv, 3.5 mg/kg
Method: In vitro metabolic stability studies
as §2, §3, §4, §5, §6, §7, §8
University, Melbourne, Australia).
In vivo efficacy and PK studies
as §9, §10, §11, §12, §13, §14, §16, §17, §18, §19

[15] = in vivo; conditions: male, CD-1, mouse, ip
Method: In vivo Maximum Tolerated Dose
(§20) Compound dissolved in 0.05% Tween 80/0.9% NaCl were each administered IP at doses of 20, 60 and
(§21) 100 mg kg-1 to groups of 2 CD-1 (Crl.) derived male mice weighing 22 ± 2 g. The animals were observed
(§22) for presence of acute toxic symptoms (mortality, convulsions, tremors, muscle relaxation, sedation,
(§23) etc.) and autonomic effects (diarrhea, salivation, lacrimation, vasodilation, piloerection, etc.) during
the first 30 min post-dosing.
(§24) For the IV studies, compounds were dissolved in 10% DMSO/0.1 M HCl/1% Tween 80/5% Glucose were
(§25) prepared at a dose of 4 mg kg-1 and were administered intravenously once to groups of 3 CD-1 (Crl.)
(§26) derived male mice weighing 22 ± 2 g, and monitored and analyzed similar to the IP study during the
(§27) first 5 min post dosing (IV). In addition, Group 3 and Group 5 were administered intravenously with
(§28) compounds at 4 mg kg-1 for 2 times (T=0 and T=170 minutes) and the autonomic signs and neurological
(§29) changes were observed during the first 5 min after the first and the second dose. Mortality was also

[16] = test system: S. aureus (Smith); assay: Mouse model of septicemia
Method: In vivo Septicaemia mouse model
Groups of 10 male CD-1 (Crl.) derived mice weighing 22 ± 2 g were used. The mice were inoculated
of brain-heart infusion broth containing 5% mucin. Compounds were dissolved in 0.05% Tween
80/0.9% NaCl. Vehicle and compounds at 50 and 100 mg kg-1 were each administered intraperitoneally
10 and/or 180 minutes after S. aureus (Smith) challenge. Ampicillin (0.1 mg kg-1, IP, as positive control
agent) was administered to test animals at 1 h after the inoculation. Mortality was monitored once
For the corresponding IV studies compounds at 4 mg kg-1 were dissolved in 10% DMSO/0.1 M HCl/1%
Tween 80/5% glucose, and compounds were each administered intravenously at 10 min and/or 180
min after S. aureus (Smith) challenge.

[17] = In vivo maximum tolerated dose, i.p.; conditions: mice
Method: In vivo Maximum Tolerated Dose
as §20, §21, §22, §23
the first 30 min post-dosing.
as §24, §25, §26, §27, §28, §29

[18] = test system: S. aureus MSSA, ATCC 25923; assay: MIC determination (broth microdilution); conditions: Staphylococcus aureus
Method: as §1

[19] = test system: S. aureus MRSA, ATCC 43300; assay: MIC determination (broth microdilution); conditions: Staphylococcus aureus
Method: as §1

[20] = test system: S. aureus NRS 17—GISA; assay: MIC determination (broth microdilution); conditions: Staphylococcus aureus, NRS17
Method: as §1

[21] = test system: S. aureus NRS 1—GISA; assay: MIC determination (broth microdilution); conditions: Staphylococcus aureus, NRS1
Method: as §1

[22] = test system: S. aureus VRS 1; assay: MIC determination (broth microdilution); conditions: Staphylococcus aureus, VRS1
Method: as §1

[23] = test system: S. aureus mMRSA, DRSA, ci; assay: MIC determination (broth microdilution); conditions: Staphylococcus aureus
Method: as §1

[24] = test system: E. faecium ATCC 35667; assay: MIC determination (broth microdilution); conditions: Enterococcus faecium, ATCC35667
Method: as §1

[25] = test system: E. faecium VanA, ATCC 51559; assay: MIC determination (broth microdilution); conditions: Enterococcus faecium, ATCC51559
Method: as §1

[26] = test system: E. faecalis ATCC 29212; assay: MIC determination (broth microdilution); conditions: Enterococcus faecalis, ATCC29212
Method: as §1

[27] = test system: E. faecalis VanA, ci; assay: MIC determination (broth microdilution); conditions: Enterococcus faecalis
Method: as §1

[28] = test system: S. pneumoniae MDR, ATCC 700677; assay: MIC determination (broth microdilution); conditions: Streptococcus pneumoniae, ATCC700677
Method: as §1

[29] = test system: E. coli ATCC 25922; assay: MIC determination (broth microdilution); conditions: Escherichia coli, ATCC25922
Method: as §1

[30] = test system: S. aureus (Newbould 305, ATCC 29740); assay: Mouse mammary gland infection (mastitis) model
Method: Each compound was instilled at different doses into the teat canal of both contralateral glands from the fourth mammary gland pair of lactating mice at 4 h after bacterial inoculation.
The procedure for mouse mammary gland infection has been recently described[64]. CD-1 lactating mice were utilized 12–14 days after giving birth, with pups weaned 1–2 h before bacterial inoculation of the mammary glands. Inoculation of both left (L4) and right (R4) glands of the fourth abdominal mammary gland pair of anesthetized mice with 150 c.f.u. of S. aureus, was done using 32-gauge syringes (blunt needle). The antimicrobial formulation was instilled into the mammary gland of anesthetized mice at 4 h after bacterial inoculation, followed by i.p. administration of postoperative analgesic Buprecare. […] Bacterial c.f.u. counts were obtained after quantification of serial logarithmic dilutions of mammary gland homogenates on TSA. The detection limit (DL) was 1.7 log10 c.f.u. g^−1 gland weight (for more details see Supplementary Methods).
The actual colony forming units (CFU) of the inocula was confirmed by overnight culture of a serial logarithmic dilution on tryptic soy agar (TSA; Oxoid Limited) plates.

[31] = test system: S.aureus MSSA; assay: MIC, chemotype M3 library (Supplementary Table 1); conditions: Staphylococcus aureus
Method: as §1

[32] = test system: S.aureus MRSA; assay: MIC, chemotype M3 library (Supplementary Table 1); conditions: Staphylococcus aureus
Method: as §1

[33] = test system: E. faecium; assay: MIC, chemotype M3 library (Supplementary Table 1); conditions: Enterococcus faecium
Method: as §1

[34] = test system: E. faecium VanB; assay: MIC, chemotype M3 library (Supplementary Table 1); conditions: Enterococcus faecium
Method: as §1

[35] = test system: E. faecalis; assay: MIC, chemotype M3 library (Supplementary Table 1); conditions: Enterococcus faecalis
Method: as §1

[36] = test system: E.coli; assay: MIC, chemotype M3 library (Supplementary Table 1); conditions: Escherichia coli
Method: as §1

[37] = test system: PBP1 from C. difficile; assay: Glycosyltransferase activity by HPLC, NBD-lipid II; conditions: 200 μg ml^−1, NBD-lipid II
Method: (§30) We then monitored the transformation of fluorescent NBD-lipid II by two different GT enzymes, PBP1 from Clostridium difficile and MGT from S. aureus.
(§31) 25 °C. The reaction was initiated by addition of glycosyltransferease (2.5 µg mL-1) and terminated by
(§32) The reaction mixtures were then analysed by a
(§33) HPLC system (Hitachi) equipped with an anion-exchange column (5 μm, 4.6 × 250 mm, SAX1, Supelco
(§34) Co.) using a linear gradient of NH4OAc/MeOH (20 mM to 1 M) at a flow rate of 1 mL min-1. The signals
(§35) were detected with a fluorometer at λex = 355 nm and λem = 460 nm.

[38] = target: MGT from S. aureus (Staphylococcus aureus, UniProt Q99T05); assay: Glycosyltransferase activity by HPLC, NBD-lipid II; conditions: 200 μg ml^−1, NBD-lipid II
Sequence of MGT from S. aureus (Q99T05 whole entry): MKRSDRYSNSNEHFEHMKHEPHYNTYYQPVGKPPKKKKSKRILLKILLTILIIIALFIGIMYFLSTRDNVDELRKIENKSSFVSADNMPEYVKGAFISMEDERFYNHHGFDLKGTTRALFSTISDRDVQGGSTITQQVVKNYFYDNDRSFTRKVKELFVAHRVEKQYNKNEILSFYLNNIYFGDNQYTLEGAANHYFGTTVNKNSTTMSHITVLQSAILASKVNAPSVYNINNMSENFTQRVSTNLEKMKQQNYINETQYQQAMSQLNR
Method: as §30, §31, §32, §33, §34, §35

[39] = In vivo pharmacokinetics, i.v. administration to male rats; conditions: Sprague Dawley, rat, iv, 3.5 mg kg^-1
Method: In vitro metabolic stability studies
as §2, §3, §4, §5, §6, §7, §8
University, Melbourne, Australia).
In vivo efficacy and PK studies
as §9, §10, §11, §12, §13, §14, §16, §17, §18, §19

[40] = test system: bacterial PG biosynthesis in crude B. megaterium membrane; assay: In vitro PG biosynthesis, [14C]UDP-GlcNAc incorporation into lipid II and PG, TLC; conditions: for Accumulation of lipid II / Inhibit of PG: vs no antibiotic
Excerpt: To elucidate the mode of action of the inhibitors, we conducted various GT enzyme inhibition assays. […] This assay monitors [^14C]UDP-GlcNAc incorporation into lipid II and mature PG, in the presence of different concentrations of antibiotics[39]. Owing to the sequential nature of the glycosyltransfer and transpeptidation, it is not possible to determine at which step PG biosynthesis is blocked in this assay. The low concentration of lipid II can be detected by thin-layer chromatography (TLC) separation and subsequent phosphorimaging of pre-solubilized membranes, which was incubated with the cytoplasmic PG precursors UDP-MurNAc-pentapeptide and UDP-[^14C]GlcNAc[41][42].
The cell-free particulate fraction of B. megaterium KM (ATCC13632), capable of catalysing the polymerization of PG from UPD-linked precursors was performed as described previously[61]. B. megaterium was grown in standard medium, harvested and washed with Tris-buffer by centrifugation. Resuspended bacteria were subjected to three freeze/thaw cycles (5 min dry ice, followed by 10 min at RT), homogenized by the glass homogenizer and centrifuged all at 4 °C, leaving most of the cell wall in the pellet. […] After separation, plates were dried, exposed to phosphorimaging screen (1 week), scanned by Typhoon 8600 calculating the integrated density value of each band on silica gel. Changes of PG or lipid II were calculated as a percentage from negative control (for more details see Supplementary Methods).
Inhibition of Lipid II and peptidoglycan biosynthesis
The cell-free particulate fraction of Bacillus megaterium KM (ATCC13632), capable of catalysing the
polymerisation of PG from UPD-linked precursors was performed as described previously 19 with some
modification. Bacillus megaterium was grown in the medium containing tryptone (Difco-Bacto), 1%
the pH to 7.2. Bacteria were harvested when the density had reached to 0.4 mg dry weight mL-1 and
washed in the buffer 0.05 M Tris-HCl (pH 7.8) containing 10 mM MgCl2 by centrifugation at 6,000 x g
for 10 min at 4 °C. All subsequent manipulations were carried out as close to 0 °C as possible.
bacteria were resuspended in the same buffer at a density of 50 mg dry weight ml-1. Then the bacteria
were subjected to three freeze/thaw cycles (dry ice for 5 min followed by RT for 10 min).
freeze/thaw cycles, bacteria were homogenized by using the glass homogenizer at 4 °C (10 min × 2).
The broken cell suspension was centrifuged at 6,000 x g for 10 min at 4 °C. The supernatant which
contained the unbroken cells and the majority of the cell walls was kept for further centrifugation.

[41] = target: S. aureus MGT (Staphylococcus aureus, UniProt Q99T05); assay: Inhibition of glycosyltransferase, continuous fluorescence assay with dansyl-Lys lipid II
Sequence of S. aureus MGT (Q99T05 whole entry): as above
Excerpt: Confirmative dose–response assays were subsequently conducted with continuous fluorescent activity assay using a dansyl-labelled, lysine-lipid II substrate[47]. […] The data were fitted to a simple saturation model of inhibitor binding to a single site, from which IC50 values were extracted.

[42] = mouse mastitis, intramammary, 4 h after inoculation

Structure (SMILES): CC(=O)N[C@H]1[C@H](O[C@H]2[C@@H](OP(=O)(O)OC[C@@H](OCCC(C)CCCCC(C)(C)CCC(C)CCC(C)CCCC(C)C)C(=O)O)O[C@H](C(N)=O)[C@@](C)(O)[C@@H]2OC(N)=O)O[C@H](CO)[C@@H](O)[C@@H]1O (stereo partly shown) [Disaccharide-degradation product]
- TG inhibition [1]: 45%
- MIC [2]: > 50 µg/mL

Structure (SMILES): NC(CC(=O)NC1C(CO)OCC(NC(=O)Nc2ccc(Cl)c(Cl)c2)C1OC1OC(CO)C(O)C(O)C1NC(=O)Nc1ccc(OC(F)(F)F)cc1)c1ccc(-c2ccccc2)cc1 (stereo not shown) [ACL19378]
- Activity in the presence of serum ([3]; 50% serum): limited activity
- MIC ([3]; Gram-positive bacteria): ~2 µg/mL
- MIC [4]: 2 µg/mL

Structure (SMILES): CCCCCCCCCCCCO[C@H](COP(=O)(O)O[C@H]1O[C@H](C(N)=O)[C@@H](O)[C@H](NC(=O)Nc2ccc(OC(F)(F)F)cc2)[C@H]1O[C@@H]1O[C@H](CO)[C@H](O)[C@H](O)[C@H]1NC(=O)c1cccc(C(F)(F)F)c1)C(=O)O [TS30153]
- MIC [5]: 3.12 µg/mL (≈ 2.93 µM)
- MIC [6]: 12.5 µg/mL (≈ 11.7 µM)
- MIC [7]: 3.1 – 12.5 μg ml^–1
- In vivo activity [8]: no in vivo activity

Structure (SMILES): O=C(Nc1ccc(Cl)c(C(F)(F)F)c1)NC1COC(CO)C(n2c(NCc3ccccc3)nc3cc(C(F)(F)F)ccc32)C1O (stereo not shown) [ACL20215]
- MIC [9]: 2 µg/mL (≈ 3.04 µM)
- HC50 [10]: 74 µg/mL
- Metabolic stability (in vitro) [11]: No degradation
- Metabolic stability (degradation of the compound) [12]: no degradation
- % Dose in urine [13]: < LLQ
- Vd [14]: 97.2 L/kg
- half-life [14]: 27.2 h
- clearance ([14]; Blood Cltotal): 48.9 mL/min/kg
- clearance ([14]; Plasma Cltotal): 42.1 mL/min/kg
- MTD at 72 h [15]: 100 mg/kg
- Survival 7 days ([16]; i.p., 50 mg kg^−1, 10 min after inoculation): 100%
- Survival 7 days ([16]; i.v., 4 mg kg^−1, 10 min after inoculation): 10%
- Good tolerance up to (dose) [17]: 60 mg/kg
- No mortality up to (dose) [17]: 100 mg/kg
- Central/autonomic responses ([17]; 100 mg kg^−1): some minor changes to central/autonomic responses
- MIC [18]: 4 µg/mL (≈ 6.08 µM)
- MIC [19]: 4 µg/mL (≈ 6.08 µM)
- MIC [20]: 8 µg/mL (≈ 12.2 µM)
- MIC [21]: 4 µg/mL (≈ 6.08 µM)
- MIC [22]: 4 µg/mL (≈ 6.08 µM)
- MIC [23]: 4 µg/mL (≈ 6.08 µM)
- MIC [24]: 16 µg/mL (≈ 24.3 µM)
- MIC [25]: 8 µg/mL (≈ 12.2 µM)
- MIC [26]: 4 µg/mL (≈ 6.08 µM)
- MIC [27]: 8 µg/mL (≈ 12.2 µM)
- MIC [28]: 4 µg/mL (≈ 6.08 µM)
- MIC [29]: > 64 µg/mL
- Glands Cleared ([30]; 200 μg gland-1): 0%
- CFU/g gland ([30]; 200 μg gland-1, 14 h post treatment): 8.36 ± 1.05 log10
- Glands Cleared ([30]; 400 μg gland-1): 0%
- CFU/g gland ([30]; 400 μg gland-1, 14 h post treatment): 7.77 ± 0.52 log10
- Glands Cleared ([30]; 800 μg gland-1): 0%
- CFU/g gland ([30]; 800 μg gland-1, 14 h post treatment): 6.60 ± 1.42 log10
- Glands Cleared ([30]; 1000 μg gland-1): 0%
- CFU/g gland ([30]; 1000 μg gland-1, 14 h post treatment): 5.72 ± 0.63 log10
- PD50 (50% protective dose) ([30]; mouse mastitis, intramammary): >1,000 μg per gland
- PD100 (100% protective dose) ([30]; mouse mastitis, intramammary): >1,000 μg per gland
- ED2logc.f.u. (effective dose to reduce bacterial load by 2 × log(c.f.u.)) [30, 42]: 730 μg per gland
- ED4logc.f.u. (effective dose to reduce bacterial load by 4 × log(c.f.u.)) [30, 42]: 1,400 μg per gland
- MIC [31]: 4 µg/mL (≈ 6.08 µM)
- MIC [32]: 2 µg/mL (≈ 3.04 µM)
- MIC [33]: 16 µg/mL (≈ 24.3 µM)
- MIC [34]: 16 µg/mL (≈ 24.3 µM)
- MIC [35]: 4 µg/mL (≈ 6.08 µM)
- MIC [36]: > 64 µg/mL
- Inhibitory effect on GT (single concentration) [37]: some inhibition; also recorded: only moderate effect
- Inhibitory effect on GT (single concentration) [38]: some inhibitory effect
- blood plasma ratio [39]: 0.86
- Accumulation of lipid II ([40]; 10 μg ml-1, 3 h): -3.4 ± 12.7%
- Inhibit of PG ([40]; 10 μg ml-1, 3 h): 0.5 ± 6.7%
- Accumulation of lipid II ([40]; 30 μg ml-1, 3 h): 17.7 ± 7.1%
- Inhibit of PG ([40]; 30 μg ml-1, 3 h): 7.9 ± 0.9%
- Accumulation of lipid II ([40]; 100 μg ml-1, 3 h): 34.9 ± 0.6%
- Inhibit of PG ([40]; 100 μg ml-1, 3 h): 17.0 ± 1.0%
- Accumulation of lipid II ([40]; 200 μg ml-1, 3 h): 47.1 ± 2.8%
- Accumulation of lipid II (in words) ([40]; concentration not given): accumulation of lipid II, although to a lesser extent
- IC50 [41]: 25.8 µM and 26 µM

Structure (SMILES): CN[C@H](CC(C)C)C(=O)N[C@H]1C(=O)N[C@@H](CC(N)=O)C(=O)N[C@H]2C(=O)N[C@H]3C(=O)N[C@H](C(=O)N[C@H](C(=O)O)c4cc(O)cc(O)c4-c4cc3ccc4O)[C@H](O)c3ccc(c(Cl)c3)Oc3cc2cc(c3O[C@@H]2O[C@H](CO)[C@@H](O)[C@H](O)[C@H]2O[C@H]2C[C@](C)(N)[C@H](O)[C@H](C)O2)Oc2ccc(cc2Cl)[C@H]1O [Vancomycin, reference compound]
- MIC [18]: 1 µg/mL (≈ 0.69 µM)
- MIC [19]: 1 µg/mL (≈ 0.69 µM)
- MIC [20]: 8 µg/mL (≈ 5.52 µM)
- MIC [21]: 4 µg/mL (≈ 2.76 µM)
- MIC [22]: > 64 µg/mL
- MIC [23]: 4 µg/mL (≈ 2.76 µM)
- MIC [25]: > 64 µg/mL
- MIC [28]: 2 µg/mL (≈ 1.38 µM)
- Accumulation of lipid II ([40]; 10 μg ml-1, 3 h): 36.6 ± 6.2%
- Inhibit of PG ([40]; 10 μg ml-1, 3 h): 12.8 ± 2.0%
- Accumulation of lipid II ([40]; 30 μg ml-1, 3 h): 106.8 ± 33.4%
- Inhibit of PG ([40]; 30 μg ml-1, 3 h): 15.0 ± 3.5%
- Accumulation of lipid II ([40]; 100 μg ml-1, 3 h): 140.6 ± 30.8%
- Inhibit of PG ([40]; 100 μg ml-1, 3 h): 21.3 ± 1.4%
- Accumulation of lipid II ([40]; 200 μg ml-1, 3 h): 151.5 ± 23.1%
- Inhibit of PG ([40]; 200 μg ml-1, 3 h): 36.0 ± 2.8%
